Results from EP0613481B1, “TRIAMINO PLATINUM COMPLEXES AND A METHOD FOR THE SYNTHESIS THEREOF” (priority 1991, dated 1993).

Key:
[1] = tested on: L 1210 murine leukemia cell line; assay: 24 hours-thymidine uptake cytotoxicity, continuous exposition to the drugs; format: cell-based; settings: for IC50: L1210, Mean ±SD, read-out: IC50 (Concentration producing 50% of inhibition)
P388 leukemic cells = assay: In vivo compared antitumor activity assay in mice infected with P388 leukemic cells; settings: single administration
L 1210/cis-DDP cell line = settings: for IC50: read-out: IC50 (Concentration producing 50% of inhibition), L1210/cis-DDP, Mean ±SD
[2] = tested on: P388 murine leukemic cells; assay: In vitro cytotoxic activity; format: cell-based; settings: at least comparable with cis-DDP
[3] = tested on: K562 human erhytroleukemic cells; assay: In vitro cytotoxic activity; format: cell-based; settings: at least comparable with cis-DDP
Jurkat human cells = assay: In vitro cytotoxic activity; format: cell-based; settings: at least comparable with cis-DDP
[4] = mouse, in vivo, ip
[5] = Acute intraperitoneal toxicity and renal toxicity in mice; settings: acute intraperitoneal administration, dissolved into 0.9% aqueous NaCl

Row | Compound | IC50 [1] [nM] | ILS (highest increase in life span) (P388 leukemic cells; 8 mg/kg) [%] | percent body weight variation (P388 leukemic cells; decrease, 8 mg/kg (maximum tolerated dose)) [%] | IC50 (L 1210/cis-DDP cell line) [nM] | activity relative to cis-DDP (times more active) ([1]; parental L 1210 cell line) | ILS (highest increase in life span) (P388 leukemic cells; 21 mg/kg) [%] | percent body weight variation (P388 leukemic cells; increase, 21 mg/kg) [%] | cytotoxic activity [2] | cytotoxic activity [3] | cytotoxic activity (Jurkat human cells) | activity relative to cis-DDP (times greater, from IC50s) (L 1210/cis-DDP cell line; L 1210/cis-DDP cell line) | kidney damages (plasma BUN increase, examination of renal tubules) [4] | LD50 [5] [mg/kg]
1 | N.N.[Cl][Pt][Cl] [cis-DDP, cis-platinum, reference compound] | 840 ± 90 | 75 | 10.6 | 9600 ± 2800 |  |  |  |  |  |  |  |  | 
2 | cis-diamino-chloro-4-[diethylammoniumethoxycarbonylphenyl]amino-platinum (II)^+ bis-chloride monohydrate [cis-DPR] | 510 ± 80 |  |  | 970 ± 170 | about 1.6 times | 75 | 4.5 | significant cytotoxyc activity | significant cytotoxyc activity | significant cytotoxyc activity | about 10 times | no evaluable kidney damages | 39.3
